Experimental data published in patent US11897918B2, “Compositions and methods to increase production” (priority 2014, dated 2024).

Tests used:
MDCK cells = assay: Cell viability, VI-CELL trypan blue exclusion; type: cell-based; conditions: monitored up to 60 hrs
Description: Cell viability assays were performed using MDCK cells treated with 1 uM sulphonamide or DMSO control. Cell viability was monitored over time up to 60 hrs using a VI-CELL machine (Beckman Coulter)(cell viability measured based on trypan blue exclusion). The sulphonamide analog used herein is not a marketed drug, therefore toxicity was conducted to identify cell viability over the course of incubation at the highest tested concentration of 10 μM and 60 hours of contact. […] At least 91% viability is detected in cells treated with sulphonamide.

H3N2 strain = assay: Additional SAR studies, 10 ml viral cultures; type: cell-based, influenza H3N2; conditions: 0.05 uM
Description: Additional SAR studies were carried out to further identify candidate compounds to increase yields. 165 analogs tested at 0.05 uM in 10 ml viral cultures with a H3N2 strain. BYF589 enhanced yield over no-compound (DMSO) control by ˜2 fold. 14 of the 165 screened were as good as or better in enhancing HA yields than BYF589 at the concentration tested.

cellular cholesterol = assay: Total cellular cholesterol (Amplex Red); type: cell-based; conditions: normalized to DMSO
Description: Possible effects of BYF589 as well as various enzyme inhibitors of the pathway on the cell viability and total cellular cholesterol levels were examined. Tested samples included DMSO, BYF589 (1 μM), MEV (100 μM), FTI (0.5 μM), ZA (1 μM) and GTI (0.5 μM).
Free cholesterol is oxidized by cholesterol oxidase to form a cholesterol ketone and H2O2, which then reacts with Amplex Red+HRP to produce the fluorescent product resorufin.

[1] = system: influenza in MDCK 33016PF cells; type: cell-based
[2] = system: virus-infected host cell culture; type: cell-based, influenza; conditions: versus control without compound
[3] = system: B/Massachusetts/2/2012 (low-expressing); assay: ambr15 mini-bioreactor and shake flask comparison, B strain; type: cell-based, influenza B; conditions: CDM and DM134 media, shake flasks and 15 ml bioreactors
Description: The two lead compounds were further tested in the commercially available small-scale bioreactor system, ambr15™ (TAP Biosystems). The ambr15 system mimics the characteristics of classical bioreactors at microscale (10-15 ml), controlled by an automated workstation, which enables the rapid evaluation of multiple bioreactor cultures at microscale.
To test both lead compounds were tested side-by-side under controlled conditions, with two infection media formulations (DM134 and CDM) and two flu strains, A/Victoria/361/2011 (IVR-165) (high-expressing) and B/Massachusetts/2/2012 (low-expressing). The infection parameters used in the experiment were as follows: seeding density was 1.0×10^6 cells/ml or 2.5×10^6 cells/mL; pH was 7.1+/−0.02 (pH control by dual control with 0.05N NaOH and CO2 gas); DO was 50% (range 50-80%), controlled by O2 gas; agitation was 1000 rpm (local control); temperature was 34.0° C., locally monitored with bioreactor controller probe; vessel type was Spargeless, extended temperature vessels; and, aeration rate during run was 1 mL/min.
The quantification of HA was carried out by ELISA then was subsequently confirmed by HPLC. It was also shown that AFZ077 was able to boost HA yield in the DM134 medium with both low (1×10^6 per mL) and high (2.5×10^6 per mL) infection cell densities in this system. […] Overall, greater enhancement effect seen for low-expressing strains. […]

HEK293 Freestyle cells = assay: Recombinant protein expression in HEK293 Freestyle cells; type: cell-based; conditions: 70 nM; proteins with a yield of about ≤4 mg/L
Description: To further evaluate general utility of the compounds identified in the HA yield studies, one of the lead compounds, BYF589, was tested on recombinant protein expression using heterologous cells. In particular, proteins that had been previously found to be difficult to express in HEK293 cells were included, which are referred to as “low yielders.” In a typical optimized system, low yielders are defined as having a yield of 5 mg/L or less. About 20 constructs of target proteins with typical yields of between 2-10 mg/L were selected for the experiments. They are secreted mammalian proteins, which are truncated versions of full length counterparts. Each construct (in a variant of the pRS5a vector) contained at least one tag (e.g., at least a C-terminal FlagHis tag—in addition, many are fused N- or C-terminally to mouse IgG1 Fc). Roughly equal numbers of each tag type were selected to reduce bias.
All targets with yields <1 mg/L or >10 mg/L were removed. Next, targets were sorted by tag type. Finally, if it looked like a particular molecular weight range was heavily represented, a few “duplicates” were culled. Then, to select samples, first 6-7 from each tag type were included without additional selection criteria. Resulting target list is reproduced below.
The BYF589 compound was dissolved in DMSO to finally provide a 70 μM working stock (1000×). […]

[4] = 0 and 60 hr, mass spec

SMILES: O=C(O)C[C@H](O)C[C@H](O)/C=C/c1c(C2CC2)nc2ccccc2c1-c1ccc(F)cc1 [Compound G, (3R, 5S, 6E)-7-[2-cyclopropyl-4-(4-fluorophenyl)-quinolin-3-yl)-3,5-dihydroxyhept-6-enoic acid]
- impact on cell viability (MDCK cells): Neither sulphonamide nor pitavastatin had a negative impact on cell viability
- yield enhancement over no-compound (DMSO) control (H3N2 strain): ~2 fold
- cellular cholesterol levels, compound alone (cellular cholesterol): lower cholesterol
- HA yield enhancement in multiple strains and subtypes of influenza [1]: at least 2 fold
- increase in HA yield at 24 hours, compound added at T=2, 4 [2]: no significant enhancement in HA yield
- increase in HA yield at 24 hours, compound added at T=6 [2]: no significant enhancement in HA yield
- increase in HA yield at 24 hours, compound added at time of infection (T=0) [2]: approximately 4 fold
- HA yield enhancement, low-expressing B strain [3]: boosts HA yield
- increase in recombinant protein yield (HEK293 Freestyle cells): ≥ 1.5 fold
- loss of compound in media or media+MDCK cells [4]: No loss of compounds was observed
